Patent publication US20190083521A1, “COMBINATION THERAPY FOR TREATING CANCER” (Epizyme, Inc., priority 2014, published 2019)

How the values were obtained:
MV4-11 (MLL-AF4) cells = assay: Combination proliferation assay with Compound A2 (CellTiter-Glo, Chou-Talalay CI); assay type: cell-based, human; conditions: MV4-11 (MLL-AF4); 7 Day Cotreatment Model
Protocol: The acute myelogenous leukemia cell lines MV4-11 (MLL-AF4) and MOLM-13 (MLL-AF9) were obtained from American Type Culture Collection (ATCC; Rockville, Md.) and Deutsche Sammlung von Mikroorganismen and Zellkulturen (DSMZ; Braunschweig, Germany) respectively.
(§1) Studies were performed using MLL-rearranged cell lines in vitro to evaluate the anti-proliferative effect of a combination of two agents together on cell growth. Initial proliferation studies were performed to determine the IC50 of a given compound in each cell line. The cell counts were measured by ATP quantitation using the Promega Cell Titer Glo kit and luminescence values corresponded to the amount of ATP in a given well.
Compounds were evaluated for synergy in the co-treatment phase by testing the compounds in a concentration range which was bracketed around their IC50 values. The compounds were plated to a 96 well plate in a matrix format (FIG. 3) which includes increasing concentrations of each drug in the combination in a constant ratio, in addition to the effect of each compound alone in the study. Cells were seeded and grown in the log-linear phase for 3 or 7 days in the co-treatment phase. Minimum inhibition (DMSO alone) controls were used in each plate to calculate fraction affected (Fa) of a test well. DMSO concentration was kept at 0.1% v/v.
The drug combination analysis was performed utilizing the Chou-Talalay method Synergy was determined using the software package Calcusyn by Biosoft. The combination index (CI) is a quantitative term used to describe the level of synergy or antagonism in a given test system. A combination index less than one indicates synergy, and a CI greater than one indicates antagonism. Further, strong synergism is achieved when the CI value falls below 0.3.
The HP-D300 digital dispenser (Tecan) was used to dispense compounds in a combinatorial matrix. […] Cell viability was measured via ATP content using CellTiter-Glo® (Promega).
Viability was determined using CellTiter-Glo® (Promega).
as §1, with “Proliferation studies” for “Studies”, “MOLM-13, MV4-11 and SKM-1” for “MLL-rearranged”, “cancer cell killing” for “anti-proliferative”, “IC50 values” for “IC50”, “correspond” for “corresponded”
These studies were performed to evaluate both the combinatorial effect of compounds on cell killing and the durability of the effect by washing out one of the agents.
Compounds evaluated for synergy in the co-treatment phase were tested in a range which was bracketed around the IC50's. The compounds were plated to a 96 well plate in a matrix format which includes increasing concentrations of each drug in the combination in a constant ratio, in addition to the effect of each compound alone in the study. Cells were seeded and grown in the log-linear phase for 3 or 7 days in the cotreatment phase. Maximum and minimum inhibition (DMSO alone) controls were used in each plate to calculate fraction affected (Fa) of a test well. DMSO concentration was kept at 0.1% v/v. The drug combination analysis was performed utilizing the Chou-Talalay method. Synergy was determined using the software package Calcusyn by Biosoft. The combination index (CI) is the term used to describe the level of synergy or antagonism in a given test system. A combination index less than one indicates synergy, and a CI greater than one indicates antagonism.
The drug combination analysis was performed using the Chou-Talalay method. Graphs representing values of combination index (CI) versus Fractional effect (Fa) known as Fa-CI plots were generated and synergy was evaluated. Drug synergy was statistically defined by CI values less than 1, antagonism by CI>1 and additive effect by CI equal to 1.

MOLM-13 cells = assay: Example 6 combination screen: 300 nM EPZ-5676 pre-treatment, second compound 72 h, ATPLite, IC50 shift; assay type: cell-based, human; conditions: 300 nM EPZ-5676 pre-treatment (4 + 3 days) vs DMSO, then 2nd compound 72 h, IC50 shift of 2nd compound
Protocol: (§2) Cells were then equilibrated in incubators for 24 hours before treatment with a second compound. Treated assay plates were incubated with a second compound for 72 hours. After this time, plates were developed for endpoint analysis using ATPLite to measure ATP content, which is used as an indicator of cell viability.
(§3) “N/D” means that IC50 of the second compound could not be determined for both conditions.

ML-2 (MLL-AF6) cells = assay: Example 7 retest: EPZ-5676 pre-treatment, second compound 72 h, Cell Titer Glo, growth inhibition; assay type: cell-based; design: GI100: unit not given here; conditions: ML-2 (MLL-AF6), KRAS A146T (het); for GI50 / GI100: second compound, 72 h
Protocol: (§4) Cells were then treated with a second compound for 72 hours. After this time, plates were developed for endpoint analysis using Cell Titer Glo to measure ATP content, which is used as an indicator of cell viability.
(§5) “N/D” means the GI100 of the second compound could not be determined for both conditions and “-” means not tested.
(§6) Growth Inhibition (GI) as a measure of cell viability: The cell viability of vehicle was measured at the time of dosing the second agent (T0) and after seventy-two hours (T72). […] A GI 200% represents complete death of all cells in the culture well. Compounds reaching an activity plateau of GI 200% are considered cytotoxic. GI is calculated by applying the following test and equation: […]

RS4-11 (MLL-AF4) cells = assay: as above; assay type: cell-based; design: GI100: unit not given here; conditions: RS4-11 (MLL-AF4), Ras mutation status: None known, second compound, 72 h; for GI50: Homo sapiens
Protocol: as §4, §5, §6

[1] = test system: OCI-AML-4 (MLL-ENL) cells; assay: as above; assay type: cell-based; conditions: OCI-AML-4 (MLL-ENL); for Combination result with EPZ-5676, Retest: 300 nM EPZ-5676 pre-treatment vs DMSO; for Result (combination with EPZ-5676) / GI50 / GI100: NRAS Q61R (het); for GI50 / GI100: second compound, 72 h
Protocol: as §4, §5, §6

THP-1 (MLL-AF9) cells = assay: as above; assay type: cell-based; design: GI100: unit not given here; conditions: NRAS G12D
Protocol: as §4, with “Cells were split using EPZ-5676 or DMSO containing growth media and further incubated for an additional 3-day pre-treatment time. Cells were finally seeded in growth media containing EPZ-5676 or DMSO in 96-well plates. Cells” for “Cells”
as §5
as §6, with “(T72). A GI reading of 0% represents no growth inhibition—cells treated with test compound as compared to T72 vehicle signals were measured.” for “(T72).”

SKM-1 (non-MLLr) cells = assay: as above; assay type: cell-based, human; design: GI100: unit not given here; conditions: SKM-1 (non-MLLr); for Combination result with EPZ-5676, Retest: 300 nM EPZ-5676 pre-treatment vs DMSO; for Result (combination with EPZ-5676) / GI50 / GI100: KRAS K117N (homo); for GI50 / GI100: second compound, 72 h
Protocol: as §4, §5, §6

MOLM-13 (MLL-AF9) cells = assay: as above; assay type: cell-based, human; design: GI100: unit not given here; conditions: MOLM-13 (MLL-AF9); for GI50: Homo sapiens; for GI50 / GI100: second compound, 72 h
Protocol: as §4, §5, §6

SKM-1 cells = assay: Example 6 combination screen: 300 nM EPZ-5676 pre-treatment, second compound 72 h, ATPLite, IC50 shift; assay type: cell-based, human; conditions: SKM-1 cells; 300 nM EPZ-5676 pre-treatment (4 + 3 days) vs DMSO, then 2nd compound 72 h; ATPLite; IC50 shift of 2nd compound
Protocol: as §2, §3

[2] = Ras mutation status: None known

| GI50 (RS4-11 (MLL-AF4) cells) [nM] | GI50 [1] [nM] | GI50 (THP-1 (MLL-AF9) cells) [nM] | GI50 (SKM-1 (non-MLLr) cells) [nM] | GI50 (MOLM-13 (MLL-AF9) cells; [2]) [nM] | Compound | Summary of Combination Studies: MOLM-13 (MOLM-13 cells) | GI50 (ML-2 (MLL-AF6) cells) [nM] | GI100 (ML-2 (MLL-AF6) cells) | GI100 (RS4-11 (MLL-AF4) cells) | Combination result with EPZ-5676, Retest [1] | Result (combination with EPZ-5676) [1] | GI100 [1] | GI100 (THP-1 (MLL-AF9) cells) | Combination result with EPZ-5676, Retest (SKM-1 (non-MLLr) cells) | Result (combination with EPZ-5676) (SKM-1 (non-MLLr) cells) | GI100 (SKM-1 (non-MLLr) cells) | GI100 (MOLM-13 (MLL-AF9) cells; [2]) | Summary of Combination Studies: SKM-1 (SKM-1 cells) | also measured |
| --- | --- | --- | --- | --- | --- | --- | --- | --- | --- | --- | --- | --- | --- | --- | --- | --- | --- | --- | --- |
|  |  |  |  |  | O=C(Nc1ccccc1-c1cn2c(CN3CCNCC3)csc2n1)c1cnc2ccccc2n1 [SRT-1720] | Synergy (considered synergistic if the IC50 value of the second compound decreased by 2-fold or more when EPZ-5676 was added as compared to the DMSO control) |  |  |  |  |  |  |  |  |  |  |  |  | Combination effect with Compound A2 (Table 4) (MV4-11 (MLL-AF4) cells): Synergy (Drug synergy was statistically defined by CI values less than 1) |
| > 10000 | 59 | 90 | 10 | 720 | Cn1cnc2c(F)c(Nc3ccc(Br)cc3F)c(C(=O)NOCCO)cc21 [Binimetinib (MEK-162), Binimetinib] |  | 30 | 0.50 | >10 | Synergy (considered synergistic if the GI100 (Growth inhibition 100) value of the second compound decreased by 2-fold or more when EPZ-5676 was added as compared to the DMSO control) | Synergy (considered synergistic if the GI100 (Growth inhibition 100) value of the second compound decreased by 2-fold or more when EPZ-5676 was added as compared to the DMSO control) | 1.504 | >10 | Synergy (considered synergistic if the GI100 (Growth inhibition 100) value of the second compound decreased by 2-fold or more when EPZ-5676 was added as compared to the DMSO control) | Synergy (considered synergistic if the GI100 (Growth inhibition 100) value of the second compound decreased by 2-fold or more when EPZ-5676 was added as compared to the DMSO control) | 0.07 | 3.96 |  | Result (combination with EPZ-5676) (ML-2 (MLL-AF6) cells): Synergy (considered synergistic if the GI100 (Growth inhibition 100) value of the second compound decreased by 2-fold or more when EPZ-5676 was added as compared to the DMSO control); Combination result with EPZ-5676, Retest (MOLM-13 (MLL-AF9) cells; 150 nM EPZ-5676 pre-treatment vs DMSO): Synergy (considered synergistic if the GI100 (Growth inhibition 100) value of the second compound decreased by 2-fold or more when EPZ-5676 was added as compared to the DMSO control); Result (combination with EPZ-5676) (MOLM-13 (MLL-AF9) cells; [2]): Synergy (considered synergistic if the GI100 (Growth inhibition 100) value of the second compound decreased by 2-fold or more when EPZ-5676 was added as compared to the DMSO control) |
| 1300 | 904 | 2850 | 270 | 3080 | Cn1nccc1Nc1nccc(-c2ccn([C@H](CO)c3ccc(Cl)c(F)c3)c(=O)c2)n1 [GDC0994] |  | 590 | 2.55 | 2.505 | Synergy (considered synergistic if the GI100 (Growth inhibition 100) value of the second compound decreased by 2-fold or more when EPZ-5676 was added as compared to the DMSO control) | Synergy (considered synergistic if the GI100 (Growth inhibition 100) value of the second compound decreased by 2-fold or more when EPZ-5676 was added as compared to the DMSO control) | 3.068 | >10 | Synergy (considered synergistic if the GI100 (Growth inhibition 100) value of the second compound decreased by 2-fold or more when EPZ-5676 was added as compared to the DMSO control) | Synergy (considered synergistic if the GI100 (Growth inhibition 100) value of the second compound decreased by 2-fold or more when EPZ-5676 was added as compared to the DMSO control) | 1.84 | 4.26 |  |  |
|  |  |  |  |  | O=C(c1cn(Cc2cncn2Cc2ccc(Br)cc2)cc1-c1cccc2ccccc12)N1CCOCC1 [LB42708] | Synergy (considered synergistic if the IC50 value of the second compound decreased by 2-fold or more when EPZ-5676 was added as compared to the DMSO control) |  |  |  |  |  |  |  |  |  |  |  | Synergy (considered synergistic if the IC50 value of the second compound decreased by 2-fold or more when EPZ-5676 was added as compared to the DMSO control) |  |
|  |  |  |  |  | COc1ccc(-c2ccc3c(N4CCOCC4)nc(N4C[C@@H](C)O[C@@H](C)C4)nc3n2)cc1CO [KU 0063794] | Synergy (considered synergistic if the IC50 value of the second compound decreased by 2-fold or more when EPZ-5676 was added as compared to the DMSO control) |  |  |  |  |  |  |  |  |  |  |  | Synergy (considered synergistic if the IC50 value of the second compound decreased by 2-fold or more when EPZ-5676 was added as compared to the DMSO control) |  |
